Calls of active or inactive are those of the source. The rule behind the calls is not given here.
Columns and labels:
[1] = target: T1, Protein cereblon/Heat shock protein HSP 90-alpha/Heat shock protein HSP 90-beta (Homo sapiens) (UniProt P07900+P08238+Q96SW2); test: Protac activity at CRBN/Hsp90 in human SiHa cells assessed as induction of Hsp90 degradation at 1 uM incubated for 8 to 10 hrs by Western blot analysis; assay type: cell-based; conditions: time 8-10 hrs
SiHa [2] = test: Induction of cell cycle arrest in human SiHa cells assessed as accumulation of cells at G1 pahse at 0.05 uM incubated after 48 hrs by PI staining based flow cytometry (reference value: 83.90 %); assay type: functional
[3] = target: T1, Protein cereblon/Heat shock protein HSP 90-alpha/Heat shock protein HSP 90-beta (Homo sapiens); test: Protac activity at CRBN/Hsp90 in human SiHa cells assessed as induction of Hsp90 degradation (causing hook effect) at > 0.075 uM incubated for 10 hrs by Western blot analysis; assay type: cell-based
SiHa [4] = test: Synergistic antiproliferative activity against human SiHa cells assessed as combination index at 5 uM incubated for 72 hrs in presence of 31.62 uM cisplatin by CCK-8 assay; assay type: functional
SiHa [5] = test: Induction of cell cycle arrest in human SiHa cells assessed as accumulation of cells at S pahse at 1 uM incubated after 48 hrs by PI staining based flow cytometry (reference value: 8.51 %); assay type: functional
SiHa [6] = test: Induction of apoptosis in human SiHa cells assessed as necrotic cells at 1 uM incubated after 48 hrs by annexin V-FITC/PI staining based flow cytometry (reference value: 0.08 %); assay type: functional
SiHa [7] = test: Synergistic antiproliferative activity against human SiHa cells assessed as combination index at 5 uM incubated for 72 hrs in presence of 0.1 uM cisplatin by CCK-8 assay; assay type: functional
SiHa [8] = test: Synergistic antiproliferative activity against human SiHa cells assessed as combination index at 0.05 uM incubated for 72 hrs in presence of 1 uM cisplatin by CCK-8 assay; assay type: functional
SiHa [9] = test: Induction of cell cycle arrest in human SiHa cells assessed as increase in accumulation of cells at G2/M pahse incubated after 48 hrs by PI staining based flow cytometry; assay type: functional; conditions: dose 0.05-10 µM
[10] = target: T1, Protein cereblon/Heat shock protein HSP 90-alpha/Heat shock protein HSP 90-beta (Homo sapiens); test: Protac activity at CRBN/Hsp90 in human SiHa cells assessed as induction of Hsp90 degradation at 0.05 uM incubated for 2 hrs in presence of bortezomib by Western blot analysis; assay type: cell-based
SiHa [11] = test: Synergistic antiproliferative activity against human SiHa cells assessed as combination index at 1 uM incubated for 72 hrs in presence of 10 uM cisplatin by CCK-8 assay; assay type: functional
SiHa [12] = test: Synergistic antiproliferative activity against human SiHa cells assessed as combination index at 5 uM incubated for 72 hrs in presence of 0.03 uM cisplatin by CCK-8 assay; assay type: functional
SiHa [13] = test: Synergistic antiproliferative activity against human SiHa cells assessed as combination index at 0.1 uM incubated for 72 hrs in presence of 10 uM cisplatin by CCK-8 assay; assay type: functional
SiHa [14] = test: Synergistic antiproliferative activity against human SiHa cells assessed as combination index at 0.75 uM incubated for 72 hrs in presence of 10 uM cisplatin by CCK-8 assay; assay type: functional
SiHa [15] = test: Induction of cell cycle arrest in human SiHa cells assessed as accumulation of cells at G2/M pahse at 0.05 uM incubated after 48 hrs by PI staining based flow cytometry (reference value: 7.37 %); assay type: functional
SiHa [16] = test: Synergistic antiproliferative activity against human SiHa cells assessed as combination index at 0.75 uM incubated for 72 hrs in presence of 3.16 uM cisplatin by CCK-8 assay; assay type: functional
SiHa [17] = test: Synergistic antiproliferative activity against human SiHa cells assessed as combination index at 0.1 uM incubated for 72 hrs in presence of 0.01 uM cisplatin by CCK-8 assay; assay type: functional
SiHa [18] = test: Induction of cell cycle arrest in human SiHa cells assessed as accumulation of cells at G2/M pahse at 1 uM incubated after 48 hrs by PI staining based flow cytometry (reference value: 7.37 %); assay type: functional
SiHa [19] = test: Inhibition of cell migration in human SiHa cells at 0.5 uM measured after 48 hrs by microscope based wound healing assay relative to control; assay type: functional
SiHa [20] = test: Synergistic antiproliferative activity against human SiHa cells assessed as combination index at 0.1 uM incubated for 72 hrs in presence of 1 uM cisplatin by CCK-8 assay; assay type: functional
SiHa [21] = test: Synergistic antiproliferative activity against human SiHa cells assessed as combination index at 0.5 uM incubated for 72 hrs in presence of 3.16 uM cisplatin by CCK-8 assay; assay type: functional
SiHa [22] = test: Synergistic antiproliferative activity against human SiHa cells assessed as combination index at 5 uM incubated for 72 hrs in presence of 1 uM cisplatin by CCK-8 assay; assay type: functional
SiHa [23] = test: Synergistic antiproliferative activity against human SiHa cells assessed as combination index at 10 uM incubated for 72 hrs in presence of 0.1 uM cisplatin by CCK-8 assay; assay type: functional
[24] = target: T1, Protein cereblon/Heat shock protein HSP 90-alpha/Heat shock protein HSP 90-beta (Homo sapiens); test: Protac activity at CRBN/Hsp90 in human SiHa cells assessed as induction of Hsp90 degradation at 0.05 uM incubated for 10 hrs by Western blot analysis; assay type: cell-based
[25] = Toxicity in BALB/c nude mouse xenografted with human SiHa cells assessed as body weight weight loss at 2 mg/kg, ip; assay type: organism-based; conditions: in vivo
SiHa [26] = test: Synergistic antiproliferative activity against human SiHa cells assessed as combination index at 1 uM incubated for 72 hrs in presence of 0.01 uM cisplatin by CCK-8 assay; assay type: functional
SiHa [27] = test: Synergistic antiproliferative activity against human SiHa cells assessed as combination index at 10 uM incubated for 72 hrs in presence of 1 uM cisplatin by CCK-8 assay; assay type: functional
SiHa [28] = test: Synergistic antiproliferative activity against human SiHa cells assessed as combination index at 0.75 uM incubated for 72 hrs in presence of 0.32 uM cisplatin by CCK-8 assay; assay type: functional
SiHa [29] = test: Synergistic antiproliferative activity against human SiHa cells assessed as combination index at 1 uM incubated for 72 hrs in presence of 1 uM cisplatin by CCK-8 assay; assay type: functional
SiHa [30] = test: Induction of cell cycle arrest in human SiHa cells assessed as accumulation of cells at G2/M pahse at 2.5 uM incubated after 48 hrs by PI staining based flow cytometry (reference value: 7.37 %); assay type: functional
SiHa [31] = test: Induction of apoptosis in human SiHa cells assessed as late apoptotic cells at 2.5 uM incubated after 48 hrs by annexin V-FITC/PI staining based flow cytometry (reference value: 6.93 %); assay type: functional
SiHa [32] = test: Synergistic antiproliferative activity against human SiHa cells assessed as combination index at 0.75 uM incubated for 72 hrs in presence of 31.62 uM cisplatin by CCK-8 assay; assay type: functional
SiHa [33] = test: Synergistic antiproliferative activity against human SiHa cells assessed as combination index at 0.5 uM incubated for 72 hrs in presence of 0.01 uM cisplatin by CCK-8 assay; assay type: functional
SiHa [34] = test: Synergistic antiproliferative activity against human SiHa cells assessed as combination index at 0.75 uM incubated for 72 hrs in presence of 1 uM cisplatin by CCK-8 assay; assay type: functional
C-33-A = test: Antiproliferative activity against human C-33-A cells assessed as reduction in cell viability incubated for 72 hrs by CCK-8 assay; assay type: functional, cell-based

In the case of CC1(C)CC(=O)c2c(C(F)(F)F)nn(-c3ccc(C(N)=O)c(N[C@H]4CC[C@H](OC(=O)CNC(=O)CCCCCCCNc5cccc6c5CN(C5CCC(=O)NC5=O)C6=O)CC4)c3)c2C1 (stereo not given in full), the Activity [1] is reported as “Active”, the Activity (SiHa [2]) is reported as 78.92% and the Activity [3] is reported as “inactive”. For the same compound, the CI (SiHa [4]) was 0.53, the Activity (SiHa [5]) was 13.56% and the Activity (SiHa [6]) was 0.29%. For the same compound, the CI (SiHa [7]) was 1.01, the CI (SiHa [8]) was 0.74 and the Activity (SiHa [9]) was “Dose-Dependent Effect”. For the same compound, the Activity [10] was “inactive”, the CI (SiHa [11]) was 0.17 and the CI (SiHa [12]) was 1.02. For the same compound, the CI (SiHa [13]) was 0.43, the CI (SiHa [14]) was 0.21 and the Activity (SiHa [15]) was 9.88%. It also gave a CI (SiHa [16]) of 0.17, a CI (SiHa [17]) of 3.04 and an Activity (SiHa [18]) of 27.12%. The inhibition at 0.5 µM (SiHa [19]) was ~100%, the CI (SiHa [20]) was 0.8 and the CI (SiHa [21]) was 0.14. The CI (SiHa [22]) was 0.84, the CI (SiHa [23]) was 2.06 and the Activity [24] was “Active”. For the same compound, the Activity [25] was “Non-Toxic”, the CI (SiHa [26]) was 0.23 and the CI (SiHa [27]) was 1.78. It also gave a CI (SiHa [28]) of 0.17, a CI (SiHa [29]) of 0.18 and an Activity (SiHa [30]) of 25.47%. It also gave an Activity (SiHa [31]) of 22.71%, a CI (SiHa [32]) of 0.32 and a CI (SiHa [33]) of 0.18. For the same compound, the CI (SiHa [34]) was 0.17 and the IC50 (C-33-A) was 70 nM.
